Measured values reported in ChEMBL document CHEMBL4196118, “Discovery of MK-8318, a Potent and Selective CRTh2 Receptor Antagonist for the Treatment of Asthma” (ACS Med Chem Lett, 2018).
Active and inactive are the calls of the source. The calls are words filed in the database; no cut-off is given here.

What was measured:
[1] = Tmax in dog at 2 mg/kg, po; assay type: ADME, organism-based, Canis lupus familiaris; details: in vivo
Rattus norvegicus [2] = assay: (§1) Antiinflammatory activity in Brown Norway rat assessed as inhibition of OVA-induced eosinophils levels in BAL cells at 10 mg/kg, po qd for 3 days followed by aerosolized OVA challenge for 30 mins administered 2 hrs post last compound dose on day 3 measured 24 hrs post aerosolized OVA challenge relative to control; assay type: functional
[3] = target: T1, Nuclear receptor subfamily 1 group I member 2 (Homo sapiens, UniProt O75469); assay: Activation of PXR (unknown origin)
T1 sequence (O75469 whole entry): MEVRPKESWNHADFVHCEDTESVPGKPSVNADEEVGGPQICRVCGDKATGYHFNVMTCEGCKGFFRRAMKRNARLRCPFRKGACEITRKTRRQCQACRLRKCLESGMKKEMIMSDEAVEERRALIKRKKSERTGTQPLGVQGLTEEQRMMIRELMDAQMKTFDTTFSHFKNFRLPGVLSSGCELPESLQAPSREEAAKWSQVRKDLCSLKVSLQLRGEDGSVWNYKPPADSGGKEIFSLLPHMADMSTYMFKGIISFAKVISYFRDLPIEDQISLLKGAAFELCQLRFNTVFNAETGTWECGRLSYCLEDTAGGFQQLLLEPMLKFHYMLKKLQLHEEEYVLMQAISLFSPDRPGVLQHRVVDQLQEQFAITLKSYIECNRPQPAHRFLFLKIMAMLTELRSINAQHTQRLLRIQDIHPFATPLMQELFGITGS

[4] = AUC in dog at 1 mg/kg, iv; assay type: ADME, organism-based, Canis lupus familiaris; details: in vivo
[5] = AUC (0 to 6 hrs) in rat at 3 mg/kg, iv; assay type: ADME, organism-based; design: time < 6 hr, dose 3 mg/kg, route intravenous; details: in vivo
[6] = Volume of distribution in dog at 1 mg/kg, iv; assay type: ADME, organism-based, Canis lupus familiaris; details: in vivo
[7] = Oral bioavailability in rhesus monkey at 10 mg/kg; assay type: ADME, organism-based, Macaca mulatta; details: in vivo
[8] = Clearance in rat plasma at 3 mg/kg, iv; assay type: ADME, organism-based
[9] = Oral bioavailability in rat at 10 mg/kg; assay type: ADME, organism-based; details: in vivo
[10] = AUC in rat at 3 mg/kg, iv; assay type: ADME, organism-based; details: in vivo
Rattus norvegicus [11] = assay: as §1, with “neutrophils” for “eosinophils”, “3” for “10”; assay type: functional
[12] = target: T2, Prostaglandin D2 receptor 2 (Homo sapiens, UniProt Q9Y5Y4)
T2 sequence (Q9Y5Y4 whole entry): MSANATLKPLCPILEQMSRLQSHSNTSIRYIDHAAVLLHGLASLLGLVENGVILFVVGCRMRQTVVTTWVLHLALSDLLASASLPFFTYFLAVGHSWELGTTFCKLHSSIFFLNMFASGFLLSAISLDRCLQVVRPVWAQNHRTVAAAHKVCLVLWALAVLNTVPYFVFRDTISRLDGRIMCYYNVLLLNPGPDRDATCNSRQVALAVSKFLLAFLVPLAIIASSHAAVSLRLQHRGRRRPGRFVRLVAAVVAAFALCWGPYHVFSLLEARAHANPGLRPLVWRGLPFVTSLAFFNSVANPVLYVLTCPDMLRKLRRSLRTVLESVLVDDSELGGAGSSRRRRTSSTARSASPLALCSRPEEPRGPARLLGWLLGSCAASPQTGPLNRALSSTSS
Description: Antagonist activity at human CRTh2 expressed in CHOK1 cells assessed as inhibition of PGD2-induced beta-arrestin recruitment incubated for 30 mins followed by PGD2 stimulation measured after 60 mins by PathHunter based chemiluminescence assay

[13] = Oral bioavailability in dog at 2 mg/kg; assay type: ADME, organism-based, Canis lupus familiaris; details: in vivo
[14] = AUC in monkey at 1 mg/kg, iv; assay type: ADME, organism-based, Macaca mulatta; details: rhesus monkey, in vivo
[15] = Cmax in rat at 10 mg/kg, po; assay type: ADME, organism-based; design: dose 10 mg/kg, route oral; details: in vivo
Rattus norvegicus [16] = assay: as §1, with “30” for “10”; assay type: functional
Ovis aries [17] = assay: Anti-asthmatic activity in sheep lung allergen model assessed as inhibition of antigen-induced late airway response at 1 mg/kg administered as 4 hrs iv infusion starting at 1 hr prior to antigen challenge measured 4 to 8 hrs post antigen challenge; assay type: functional, organism-based
[18] = Half life in dog at 1 mg/kg, iv; assay type: ADME, organism-based, Canis lupus familiaris; details: in vivo
Rattus norvegicus [19] = assay: as §1, with “total cell” for “eosinophils”, “3” for “10”; assay type: functional
[20] = Cmax in rhesus monkey at 10 mg/kg, po; assay type: ADME, organism-based, Macaca mulatta; design: dose 10 mg/kg, route oral; details: in vivo
Cytochrome P450 2C9 = Cytochrome P450 2C9 (Homo sapiens, UniProt P11712); assay: Inhibition of CYP2C9 (unknown origin); assay type: ADME
Chain of Cytochrome P450 2C9 (P11712 whole entry): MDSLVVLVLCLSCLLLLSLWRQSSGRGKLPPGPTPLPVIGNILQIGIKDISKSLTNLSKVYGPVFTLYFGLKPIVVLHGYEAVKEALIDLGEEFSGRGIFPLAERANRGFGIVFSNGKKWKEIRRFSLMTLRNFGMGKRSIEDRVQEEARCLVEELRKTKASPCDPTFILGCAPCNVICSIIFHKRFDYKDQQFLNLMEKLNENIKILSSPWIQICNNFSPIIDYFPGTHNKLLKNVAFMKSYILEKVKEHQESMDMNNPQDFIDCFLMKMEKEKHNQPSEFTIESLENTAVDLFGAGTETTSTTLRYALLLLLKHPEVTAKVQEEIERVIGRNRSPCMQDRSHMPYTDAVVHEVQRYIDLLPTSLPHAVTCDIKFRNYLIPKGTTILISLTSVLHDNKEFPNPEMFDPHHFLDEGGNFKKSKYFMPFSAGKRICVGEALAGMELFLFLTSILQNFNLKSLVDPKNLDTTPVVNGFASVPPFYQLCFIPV

Cytochrome P450 2D6 = Cytochrome P450 2D6 (Homo sapiens, UniProt P10635); assay: Inhibition of CYP2D6 (unknown origin); assay type: ADME
Chain of Cytochrome P450 2D6 (P10635 whole entry): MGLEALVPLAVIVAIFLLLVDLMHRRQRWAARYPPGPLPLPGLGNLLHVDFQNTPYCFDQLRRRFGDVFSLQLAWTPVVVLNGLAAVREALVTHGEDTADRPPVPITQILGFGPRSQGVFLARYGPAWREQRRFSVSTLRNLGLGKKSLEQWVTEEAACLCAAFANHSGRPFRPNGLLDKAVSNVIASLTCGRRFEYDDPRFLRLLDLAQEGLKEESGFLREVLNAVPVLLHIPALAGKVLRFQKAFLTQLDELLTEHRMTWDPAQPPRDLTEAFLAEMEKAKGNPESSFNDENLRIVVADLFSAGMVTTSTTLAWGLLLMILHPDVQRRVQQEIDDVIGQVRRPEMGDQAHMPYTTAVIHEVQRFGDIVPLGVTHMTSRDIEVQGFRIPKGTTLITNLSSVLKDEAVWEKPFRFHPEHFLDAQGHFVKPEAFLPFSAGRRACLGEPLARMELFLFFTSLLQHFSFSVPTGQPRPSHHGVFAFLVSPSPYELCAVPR

[21] = AUC in rhesus monkey at 10 mg/kg, po; assay type: ADME, organism-based, Macaca mulatta; details: in vivo
Cytochrome P450 3A4 = Cytochrome P450 3A4 (Homo sapiens, UniProt P08684); assay: Inhibition of CYP3A4 (unknown origin); assay type: ADME
Chain of Cytochrome P450 3A4 (P08684 whole entry): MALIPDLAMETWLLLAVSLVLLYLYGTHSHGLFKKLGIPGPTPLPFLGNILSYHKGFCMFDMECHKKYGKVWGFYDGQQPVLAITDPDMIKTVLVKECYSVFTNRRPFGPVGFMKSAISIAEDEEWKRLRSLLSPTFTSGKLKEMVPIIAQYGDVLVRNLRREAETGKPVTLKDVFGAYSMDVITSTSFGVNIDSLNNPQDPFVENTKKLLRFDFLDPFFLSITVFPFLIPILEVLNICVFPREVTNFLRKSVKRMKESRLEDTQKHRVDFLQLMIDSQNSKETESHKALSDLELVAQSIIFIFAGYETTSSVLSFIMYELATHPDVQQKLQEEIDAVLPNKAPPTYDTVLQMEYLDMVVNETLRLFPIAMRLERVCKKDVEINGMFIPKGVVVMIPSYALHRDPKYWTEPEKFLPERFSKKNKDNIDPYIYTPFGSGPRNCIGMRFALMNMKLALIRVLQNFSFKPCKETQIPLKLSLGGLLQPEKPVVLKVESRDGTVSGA

[22] = target: T2, Prostaglandin D2 receptor 2; assay: biochemical
Description: Displacement of [3H]PGD2 from human CRTh2 expressed in HEK cell membranes after 60 mins by scintillation counting method

[23] = Half life in rat at 3 mg/kg, iv; assay type: ADME, organism-based; details: in vivo
[24] = Cmax in dog at 2 mg/kg, po; assay type: ADME, organism-based, Canis lupus familiaris; design: dose 2 mg/kg, route oral; details: in vivo
Rattus norvegicus [25] = assay: as §1, with “total cell” for “eosinophils”; assay type: functional
Rattus norvegicus [26] = assay: as §1, with “3” for “10”; assay type: functional
[27] = Half life in monkey at 1 mg/kg, iv; assay type: ADME, organism-based, Macaca mulatta; details: rhesus monkey, in vivo
[28] = Tmax in rhesus monkey at 10 mg/kg, po; assay type: ADME, organism-based, Macaca mulatta; details: in vivo
[29] = Clearance in monkey plasma at 1 mg/kg, iv; assay type: ADME, organism-based, Macaca mulatta; details: rhesus monkey
[30] = AUC in rat at 10 mg/kg, po; assay type: ADME, organism-based; details: in vivo
[31] = AUC in dog at 2 mg/kg, po; assay type: ADME, organism-based, Canis lupus familiaris; details: in vivo
[32] = Volume of distribution in monkey at 1 mg/kg, iv; assay type: ADME, organism-based, Macaca mulatta; details: rhesus monkey, in vivo
Rattus norvegicus [33] = assay: as §1, with “neutrophils” for “eosinophils”; assay type: functional
Rattus norvegicus [34] = assay: as §1, with “total cell” for “eosinophils”, “30” for “10”; assay type: functional
[35] = Tmax in rat at 10 mg/kg, po; assay type: ADME, organism-based; details: in vivo
[36] = Volume of distribution in rat at 3 mg/kg, iv; assay type: ADME, organism-based; details: in vivo
[37] = Clearance in dog plasma at 1 mg/kg, iv; assay type: ADME, organism-based, Canis lupus familiaris
[38] = target: T2, Prostaglandin D2 receptor 2; remark: listed apart in the source
Rattus norvegicus [39] = assay: as §1, with “neutrophils” for “eosinophils”, “30” for “10”; assay type: functional
Ovis aries [40] = assay: Anti-asthmatic activity in sheep lung allergen model assessed as inhibition of antigen-induced airway hyper-responsiveness at 1 mg/kg administered as 4 hrs iv infusion starting at 1 hr prior to antigen challenge measured 24 hrs post antigen challenge; assay type: functional, organism-based

Tmax [1]: 25.2 min
Activity [3]: Not Active
AUC [4]: 3.46 µM·h
AUC(0-t) at 6 h [5]: 3.35 µM·h
Vd [6]: 2.4 L/kg
bioavailability [7]: 28%
clearance [8]: 29.1 mL/min/kg
bioavailability [9]: 61%
AUC [10]: 3.4 µM·h
IC50 [12]: 3.5 nM
bioavailability [13]: 121%
AUC [14]: 1.92 µM·h
Cmax [15]: 2070 nM
half-life [18]: 624 min
Cmax [20]: 5.69 µM
inhibition (INH) (Cytochrome P450 2C9): Not Active
inhibition (INH) (Cytochrome P450 2D6): Not Active
AUC [21]: 6.76 µM·h
inhibition (INH) (Cytochrome P450 3A4): Not Active
Ki [22]: 5 nM
half-life [23]: 450 min
Cmax [24]: 2470 nM
half-life [27]: 774 min
Tmax [28]: 25.2 min
clearance [29]: 16.4 mL/min/kg
AUC [30]: 6.77 µM·h
AUC [31]: 8.51 µM·h
Vd [32]: 5.8 L/kg
Tmax [35]: 34.8 min
Vd [36]: 5.8 L/kg
clearance [37]: 9.4 mL/min/kg
IC50 [38]: 8 nM
Structure (SMILES): O=C(O)CCC(=O)N(C1CC1)[C@H]1c2cc(F)ccc2N(C(=O)c2ccc(OC(F)(F)F)cc2)[C@H]2CCC[C@H]21
inhibition in vivo at 10 mg/kg (Rattus norvegicus [2]): 65%
inhibition in vivo at 3 mg/kg (Rattus norvegicus [11]): 56%
inhibition in vivo at 30 mg/kg (Rattus norvegicus [16]): 58%
inhibition (Ovis aries [17]): Active
inhibition in vivo at 3 mg/kg (Rattus norvegicus [19]): 52%
inhibition in vivo at 10 mg/kg (Rattus norvegicus [25]): 68%
inhibition in vivo at 3 mg/kg (Rattus norvegicus [26]): 36%
inhibition in vivo at 10 mg/kg (Rattus norvegicus [33]): 49%
inhibition in vivo at 30 mg/kg (Rattus norvegicus [34]): 78%
inhibition in vivo at 30 mg/kg (Rattus norvegicus [39]): 77%
inhibition (Ovis aries [40]): Active
